Common to all, as to test: relative viability (nuclei count vs DMSO), 5 days (fraction); higher = more cells survive
Compound in the test “Decitabine + Olaparib”: Nc1ncn([C@H]2C[C@H](O)[C@@H](CO)O2)c(=O)n1 [Decitabine] + O=C(c1cc(Cc2n[nH]c(=O)c3ccccc23)ccc1F)N1CCN(C(=O)C2CC2)CC1 [Olaparib] (partner 8 µM)
In outline: (§1)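 Lung cancer cell lines were pin-tool dosed in 1536-well plates on the day after seeding, with either a lone drug or a fixed anchor-drug dose plus five library-drug doses (not always all listed) in √10 steps. Nuclei were counted on 4× images after 5 days. Relative viability is the ratio of treated-well to vehicle-well nuclei counts, with each value a median of duplicate plates.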

Compound in the test “Decitabine + Navitoclax”: Nc1ncn([C@H]2C[C@H](O)[C@@H](CO)O2)c(=O)n1 [Decitabine] + CC1(C)CCC(c2ccc(Cl)cc2)=C(CN2CCN(c3ccc(C(=O)NS(=O)(=O)c4ccc(N[C@H](CCN5CCOCC5)CSc5ccccc5)c(S(=O)(=O)C(F)(F)F)c4)cc3)CC2)C1 [Navitoclax] (partner 0.5 µM)
Put shortly:
as §1

Compound in the test “Decitabine + OSI-027”: Nc1ncn([C@H]2C[C@H](O)[C@@H](CO)O2)c(=O)n1 [Decitabine] + COc1cccc2cc(-c3nc([C@H]4CC[C@H](C(=O)O)CC4)n4ncnc(N)c34)[nH]c12 [OSI-027] (partner 0.5 µM)
In outline: as §1

Compound in the test “Halofuginone + Olaparib”: O=C(C[C@H]1NCCC[C@@H]1O)Cn1cnc2cc(Br)c(Cl)cc2c1=O (racemic) [Halofuginone] + O=C(c1cc(Cc2n[nH]c(=O)c3ccccc23)ccc1F)N1CCN(C(=O)C2CC2)CC1 [Olaparib] (partner 8 µM)
In outline:
as §1

With UMC-11, the relative viability with Decitabine + Olaparib (first compound 0.04 µM) came to 0.312; in the test with Decitabine + Olaparib (first compound 0.1265 µM), 0.301; with Decitabine + Olaparib (first compound 0.4 µM), 0.273; in the test with Decitabine + Olaparib (first compound 1.265 µM), 0.218; with Decitabine + Olaparib (first compound 4 µM) it was 0.2; with Decitabine + Navitoclax (first compound 0.04 µM) it was 0.316. For the same cell line, the relative viability in the test with Decitabine + Navitoclax (first compound 0.1265 µM) is 0.29; in the test with Decitabine + Navitoclax (first compound 0.4 µM), 0.215; with Decitabine + Navitoclax (first compound 1.265 µM), 0.162; with Decitabine + Navitoclax (first compound 4 µM), 0.145; with Decitabine + OSI-027 (first compound 0.04 µM), 0.46; in the test with Decitabine + OSI-027 (first compound 0.1265 µM), 0.0004. The relative viability with Decitabine + OSI-027 (first compound 0.4 µM) came to 0.411; in the test with Decitabine + OSI-027 (first compound 1.265 µM), 0.316; with Decitabine + OSI-027 (first compound 4 µM) it was 0.363; in the test with Halofuginone + Olaparib (first compound 0.001 µM), 0.426; in the test with Halofuginone + Olaparib (first compound 0.003162 µM), 0.381; with Halofuginone + Olaparib (first compound 0.01 µM) it was 0.566. The relative viability with Halofuginone + Olaparib (first compound 0.03162 µM) turned out to be 0.471; in the test with Halofuginone + Olaparib (first compound 0.1 µM), 0.226.

Values taken from the supplement of paper PMC10307832.
